From ChEMBL document CHEMBL4376847, “Aryl Trehalose Derivatives as Vaccine Adjuvants for Mycobacterium tuberculosis” (J Med Chem, 2020)
Activity calls are given as the source filed them. The calls are words filed in the database; no cut-off is given here.

Legend:
[1] = target: T1, C-type lectin domain family 4 member E (Homo sapiens) (UniProt Q9ULY5); assay: Agonist activity at Mincle in human PBMC assessed as increase in TNF-alpha level at 0.1 to 100 uM incubated for 18 to 24 hrs by luminex multiplex assay
T1 sequence (whole entry): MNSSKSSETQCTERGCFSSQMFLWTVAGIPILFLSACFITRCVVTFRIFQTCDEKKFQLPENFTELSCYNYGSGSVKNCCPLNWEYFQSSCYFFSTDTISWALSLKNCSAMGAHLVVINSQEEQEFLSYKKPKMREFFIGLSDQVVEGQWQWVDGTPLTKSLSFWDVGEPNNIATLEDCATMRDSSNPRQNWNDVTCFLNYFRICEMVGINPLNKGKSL

[2] = target: T1, C-type lectin domain family 4 member E (Homo sapiens); assay: Agonist activity at Mincle in human PBMC assessed as increase in IL-6 secretion at 0.1 to 100 uM incubated for 18 to 24 hrs by luminex multiplex assay
[3] = target: T1, C-type lectin domain family 4 member E (Homo sapiens); assay: Agonist activity at Mincle in human PBMC assessed as increase in TNF-alpha production at 1 to 1000 uM incubated for 18 to 24 hrs by ELISA
[4] = target: T1, C-type lectin domain family 4 member E (Homo sapiens); assay: Agonist activity at Mincle in human PBMC assessed as increase in IL-23 at 0.1 to 100 uM incubated for 18 to 24 hrs by luminex multiplex assay
[5] = target: T1, C-type lectin domain family 4 member E (Homo sapiens); assay: Agonist activity at Mincle in human PBMC assessed as increase in IL-1beta secretion at 0.1 to 100 uM incubated for 18 to 24 hrs by luminex multiplex assay
[6] = target: T1, C-type lectin domain family 4 member E (Homo sapiens); assay: Agonist activity at human Mincle receptor expressed in human HEK cells assessed as NF-kappaB activation incubated for 24 hrs by SEAP reporter gene assay; assay type: cell-based
[7] = system: Mus musculus; assay: Immuno-adjuvant activity in M72-immunized BALB/c mouse assessed as potentiation of antibody response to M72 by measuring serum anti-M72 IgG1 level at 10 nmol, im administered immediately and 14 and measured after 14 days by ELISA; assay type: functional, organism-based
[8] = system: Mus musculus; assay: Immuno-adjuvant activity in M72-immunized BALB/c mouse assessed as potentiation of antibody response to M72 by measuring serum anti-M72 IgG level at 10 nmol, im administered immediately and day 14 and measured after 14 days by ELISA; assay type: functional, organism-based
[9] = system: Mus musculus; assay: Immuno-adjuvant activity in M72-immunized BALB/c mouse assessed as potentiation of antibody response to M72 by measuring CD4+ IL-17A T-cells at 2 to 50 nmol, im administered immediately and 14 and measured after 5 days by immuno staining based flow cytometry; assay type: functional, organism-based
[10] = system: Mus musculus; assay: Immuno-adjuvant activity in M72-immunized BALB/c mouse assessed as potentiation of antibody response to M72 by measuring IFNgamma at 2 to 50 nmol, im administered immediately and 14 and measured after 5 days by immuno staining based flow cytometry; assay type: functional, organism-based
[11] = system: Mus musculus; assay: Immuno-adjuvant activity in M72-immunized BALB/c mouse assessed as potentiation of antibody response to M72 by measuring IL-5 at 2 to 50 nmol, im administered immediately and 14 and measured after 5 days by immuno staining based flow cytometry; assay type: functional, organism-based
[12] = system: Mus musculus; assay: Immuno-adjuvant activity in M72-immunized BALB/c mouse assessed as potentiation of antibody response to M72 by measuring serum anti-M72 IgG2a level at 10 nmol, im administered immediately and 14 and measured after 14 days by ELISA; assay type: functional, organism-based
[13] = target: T2, C-type lectin domain family 4 member E (Mus musculus) (UniProt Q9R0Q8); assay: Agonist activity at mouse Mincle receptor expressed in human HEK cells assessed as NF-kappaB activation incubated for 24 hrs by SEAP reporter gene assay; assay type: cell-based
T2 sequence (whole entry): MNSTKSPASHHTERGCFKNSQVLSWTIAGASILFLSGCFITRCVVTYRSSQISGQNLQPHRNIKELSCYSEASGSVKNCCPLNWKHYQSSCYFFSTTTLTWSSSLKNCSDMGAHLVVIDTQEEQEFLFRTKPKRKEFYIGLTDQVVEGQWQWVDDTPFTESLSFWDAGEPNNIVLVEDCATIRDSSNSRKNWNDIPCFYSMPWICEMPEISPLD

[14] = target: T2, C-type lectin domain family 4 member E (Mus musculus); assay: Agonist activity at Mincle in mouse RAW264.7 cells assessed as IL-6 production at 0.1 to 100 uM incubated for 18 to 24 hrs by ELISA; assay type: cell-based
[15] = target: T2, C-type lectin domain family 4 member E (Mus musculus); assay: Agonist activity at Mincle in mouse RAW264.7 cells assessed as TNF-alpha secretion at 0.1 to 100 uM incubated for 18 to 24 hrs by ELISA; assay type: cell-based
[16] = target: T1, C-type lectin domain family 4 member E (Homo sapiens); assay: Agonist activity at Mincle in human PBMC assessed as TNF-alpha secretion at 0.1 to 100 uM incubated for 18 to 24 hrs by ELISA
[17] = system: Mus musculus; assay: Immuno-adjuvant activity in B42-immunized BALB/c mouse assessed as potentiation of antibody response to B42 by measuring CD4+ IL-17A T-cells at 2 to 50 nmol, im administered immediately and 14 and measured after 5 days by immuno staining based flow cytometry; assay type: functional, organism-based

Row | SMILES | Activity [1] | Activity [2] | Activity [3] | Activity [4] | Activity [5] | Activity [14] | Activity [15] | Activity [16] | further results
1 | CCOc1cc(OCC)cc(C(=O)OC[C@H]2O[C@H](O[C@H]3O[C@H](COC(=O)c4cc(OCC)cc(OCC)c4)[C@@H](O)[C@H](O)[C@H]3O)[C@H](O)[C@@H](O)[C@@H]2O)c1 | Active | Active | Active | Active | Active | – | – | – | –
2 | COc1cc(C)c(C(=O)OC[C@H]2O[C@H](O[C@H]3O[C@H](COC(=O)c4c(C)cc(OC)cc4OC)[C@@H](O)[C@H](O)[C@H]3O)[C@H](O)[C@@H](O)[C@@H]2O)c(OC)c1 | Active | Active | Active | Active | Active | – | – | – | –
3 | COc1cc(/C=C/C(=O)OC[C@H]2O[C@H](O[C@H]3O[C@H](COC(=O)/C=C/c4cc(OC)c(OC)c(OC)c4)[C@@H](O)[C@H](O)[C@H]3O)[C@H](O)[C@@H](O)[C@@H]2O)cc(OC)c1OC | Active | Active | Active | Active | Active | – | – | – | –
4 | CC(C)(C)c1cc(C(=O)OC[C@H]2O[C@H](O[C@H]3O[C@H](COC(=O)c4cc(C(C)(C)C)cc(C(C)(C)C)c4O)[C@@H](O)[C@H](O)[C@H]3O)[C@H](O)[C@@H](O)[C@@H]2O)c(O)c(C(C)(C)C)c1 | Active | Active | Active | Active | Active | – | – | – | Activity [6]: Dose-dependent effect; Activity [7]: inactive; Activity [8]: inactive; Activity [9]: Active; Activity [10]: inactive; Activity [11]: inactive; Activity [12]: Active; Activity [13]: Dose-dependent effect
5 | CC(C)(C)c1ccc(O)c(C(=O)OC[C@H]2O[C@H](O[C@H]3O[C@H](COC(=O)c4cc(C(C)(C)C)ccc4O)[C@@H](O)[C@H](O)[C@H]3O)[C@H](O)[C@@H](O)[C@@H]2O)c1 | – | – | – | – | – | inactive | Active | Active | –
6 | CCCCCCCCCCCCCCCCCCCCCC(=O)OC[C@H]1O[C@H](O[C@H]2O[C@H](COC(=O)CCCCCCCCCCCCCCCCCCCCC)[C@@H](O)[C@H](O)[C@H]2O)[C@H](O)[C@@H](O)[C@@H]1O | – | – | – | – | – | – | – | – | Activity [6]: inactive; Activity [9]: Active; Activity [10]: inactive; Activity [11]: inactive; Activity [12]: Active; Activity [13]: inactive; Activity [17]: Active
7 | CCCCCCCC(CCCCCCC)C(=O)OC[C@H]1O[C@H](O[C@H]2O[C@H](COC(=O)C(CCCCCCC)CCCCCCC)[C@@H](O)[C@H](O)[C@H]2O)[C@H](O)[C@@H](O)[C@@H]1O | – | – | – | – | – | – | – | – | Activity [7]: Active; Activity [8]: Active; Activity [12]: Active
8 | CC(C)(C)c1cc(C(C)(C)C)c(O)c(C(=O)OC[C@H]2O[C@H](O[C@H]3O[C@H](COC(=O)c4c(O)c(C(C)(C)C)cc(C(C)(C)C)c4O)[C@@H](O)[C@H](O)[C@H]3O)[C@H](O)[C@@H](O)[C@@H]2O)c1O | – | – | – | – | – | inactive | Active | Active | –
9 | CCCCCCCCCCCCCCCCCCCCCCC(C(=O)OC[C@H]1O[C@H](O[C@H]2O[C@H](COC(=O)C(CCCCCCCCCCCCCCCCCCCCCC)C(O)CCCCCCCCCCCCCCCCCC3CC3CCCCCCCCCCCCCCC3CC3CCCCCCCCCCCCCCCCCC)[C@@H](O)[C@H](O)[C@H]2O)[C@H](O)[C@@H](O)[C@@H]1O)C(O)CCCCCCCCCCCCCCCCCC1CC1CCCCCCCCCCCCCCC1CC1CCCCCCCCCCCCCCCCCC (some centres not stated) | – | – | – | – | – | – | – | – | Activity [6]: inactive; Activity [13]: inactive
10 | CC(C)(C)c1cc(C(=O)OC[C@H]2O[C@H](O[C@H]3O[C@H](COC(=O)c4cc(C(C)(C)C)c(O)c(C(C)(C)C)c4)[C@@H](O)[C@H](O)[C@H]3O)[C@H](O)[C@@H](O)[C@@H]2O)cc(C(C)(C)C)c1O | – | – | – | – | – | inactive | Active | Active | –
11 | COc1ccc(/C=C/C(=O)OC[C@H]2O[C@H](O[C@H]3O[C@H](COC(=O)/C=C/c4ccc(OC)c(OC)c4)[C@@H](O)[C@H](O)[C@H]3O)[C@H](O)[C@@H](O)[C@@H]2O)cc1OC | Active | Active | Active | Active | Active | – | – | – | –
12 | CC(C)(C)c1cc(C(=O)OC[C@H]2O[C@H](O[C@H]3O[C@H](COC(=O)c4cc(C(C)(C)C)cc(C(C)(C)C)c4)[C@@H](O)[C@H](O)[C@H]3O)[C@H](O)[C@@H](O)[C@@H]2O)cc(C(C)(C)C)c1 | – | – | – | – | – | inactive | Active | Active | –
